The values that follow come from patent US10052330B2, “Substituted pyrido[3,4-b]pyrazines as Syk inhibitors” (HUTCHISON MEDIPHARMA LIMITED, priority 2011, dated 2018).

One experiment addresses Syk kinase (Homo sapiens, UniProt P43405). Kind of experiment: Syk kinase enzymatic assay (Kit-Tyr 2 Peptide). The experiment is classed as biochemical. Particulars: 8 concentrations, 1 μM down to 0.0003 μM; upper bound of each range is 'less than'; read-out: IC50: Enzymatic Activity (Syk kinase).
Another experiment concerns RBL-2H3 cells. Kind of experiment: IgE-induced Beta-hexosaminidase secretion in RBL-2H3 cells. The experiment is classed as cell-based. Particulars: Rattus norvegicus, RBL-2H3, RBL-2H3 cells sensitized with SPE-7, stimulated with DNP-BSA; upper bound of each range is 'less than'; read-out: IC50, IgE-induced Beta-hexosaminidase secretion.

Broadly, the IC50 is the concentration at which inhibition is half-maximal.

Structures are written as SMILES.

As for `CC1CN(c2ccc(-c3cc4nccnc4c(NC[C@@H]4CNCCO4)n3)cc2)CCO1` (stereo partly shown) [Compound 208], the IC50 on Syk kinase and with RBL-2H3 cells was 1 to 100 nM in each case.

As to `Fc1cc(-c2cc3nccnc3c(N3CCC4(CCCNC4)C3)n2)ccc1N1CCOCC1` (stereo not shown) [Compound 109], the IC50 on Syk kinase and with RBL-2H3 cells was 1 to 100 nM in each case.

As to `OCCN1CCN(c2ccc(-c3cc4nccnc4c(NCC4CNCCC4(F)F)n3)cc2)CC1` (stereo not shown) [Compound 312], the IC50 at Syk kinase and with RBL-2H3 cells was 1 to 100 nM in each case.

Regarding `N#CCC(=O)N1CCN(c2ccc(-c3cc4nccnc4c(NC[C@@H]4CNCCO4)n3)cc2)CC1` [Compound 409], the half-inhibitory concentration (IC50) at Syk kinase was 1 to 100 nM; in the experiment with RBL-2H3 cells it was 100 to 1000 nM.

`CN(C)c1ccc(-c2cc3nccnc3c(NC[C@H]3CNCCO3)n2)cn1` [Compound 106]: the IC50 on Syk kinase and in the experiment with RBL-2H3 cells was 100 to 1000 nM throughout.

For the molecule `Cc1cc(-c2cc3nccnc3c(NCC3CNCCC3(F)F)n2)ccc1N1CCOCC1` (stereo not shown) [Compound 295], the IC50 at Syk kinase and with RBL-2H3 cells was 1 to 100 nM in each case.

Turning to `Cc1cc(-c2cc3nccnc3c(NC[C@H]3CNCCO3)n2)ccc1N1CCOCC1` [Compound 115], the IC50 at Syk kinase fell in the range of 100 to 1000 nM; in the experiment with RBL-2H3 cells, 1 to 100 nM.

For the molecule `Fc1cc(-c2cc3nccnc3c(NCC3(F)CCCNC3)n2)ccc1N1CCOCC1` (stereo not shown) [Compound 254], the IC50 on Syk kinase and in the experiment with RBL-2H3 cells was 1 to 100 nM each time.

As for `OCCN1CCN(c2ccc(-c3cc4nccnc4c(NCC4CNCCO4)n3)cc2)CC1` (stereo not shown) [Compound 216], the concentration for half-maximal inhibition (IC50) at Syk kinase and in the experiment with RBL-2H3 cells was 1 to 100 nM throughout.

Take `CS(=O)(=O)N1CCN(c2ccc(-c3cc4nccnc4c(N4CC[C@H](CO)C4)n3)cc2)CC1` [Compound 362]: the IC50 at Syk kinase and with RBL-2H3 cells was 1 to 100 nM throughout.

With `CN(c1ccc(-c2cc3nccnc3c(NC[C@@H]3CNCCO3)n2)cn1)C1CCOCC1` [Compound 264], the half-maximal inhibitory concentration (IC50) on Syk kinase and in the experiment on RBL-2H3 cells was 1 to 100 nM in each case.

Consider `CCN1CCN(c2ccc(-c3cc4nccnc4c(NC[C@@H]4CN(S(C)(=O)=O)CCO4)n3)cc2)CC1` [Compound 487], for which the IC50 was 1 to 100 nM at Syk kinase and 100 to 1000 nM with RBL-2H3 cells.

For `CC1(C(=O)N2CCN(c3ccc(-c4cc5nccnc5c(NC[C@@H]5CNCCO5)n4)cc3)CC2)COC1` [Compound 404], the figures for the IC50 on Syk kinase and with RBL-2H3 cells were 1 to 100 nM and 100 to 1000 nM, respectively.

Turning to `c1cnc2c(NC[C@@H]3CNCCO3)nc(-c3ccc(N4CCCC4)cc3)cc2n1` [Compound 114], the IC50 on Syk kinase and in the experiment with RBL-2H3 cells was 1 to 100 nM each time.

For `CS(=O)(=O)N1CCO[C@H](CNc2nc(-c3ccc(C4CCN(CCCO)CC4)cc3)cc3nccnc23)C1` [Compound 494], the IC50 was 1 to 100 nM on Syk kinase and 100 to 1000 nM with RBL-2H3 cells.

For the molecule `NC1CCN(c2nc(-c3ccc(N4CCOCC4)cc3)cc3nccnc23)C1` (stereo not shown) [Compound 28], the IC50 on Syk kinase and in the experiment on RBL-2H3 cells was 100 to 1000 nM each time.

As to `FC1(F)CCNC[C@H]1CNc1nc(-c2ccc(N3CCOCC3)nc2)cc2nccnc12` [Compound 374, (S)—N-((4,4-difluoropiperidin-3-yl)methyl)-7-(6-morpholinopyridin-3-yl)pyrido[4,3-b]pyrazin-5-amine], the IC50 on Syk kinase and in the experiment on RBL-2H3 cells was 1 to 100 nM in each case.

Take `CCS(=O)(=O)N1CCN(c2ccc(-c3cc4nccnc4c(NC[C@@H]4CNCCO4)n3)cn2)CC1` [Compound 441]: the IC50 was in the range of 1 to 100 nM on Syk kinase and 100 to 1000 nM with RBL-2H3 cells.

Take `NC(=O)NC[C@H]1CCN(c2nc(-c3ccc(N4CCOCC4)cc3)cc3nccnc23)C1` [Compound 151]: the IC50 at Syk kinase and in the experiment with RBL-2H3 cells was 100 to 1000 nM each time.

`CN(C)c1ccc(-c2cc3nccnc3c(NC[C@H]3CCCNC3)n2)cc1F` [Compound 142]: the IC50 on Syk kinase and in the experiment with RBL-2H3 cells was 1 to 100 nM in each case.

On to `CN(C)c1ccc(-c2cc3nccnc3c(NCC3CNCCC3(F)F)n2)cc1F` (stereo not shown) [Compound 301], for which the IC50 at Syk kinase and with RBL-2H3 cells was 1 to 100 nM throughout.

Take `O=C(CC(F)(F)F)N1CCN(c2ccc(-c3cc4nccnc4c(NC[C@@H]4CNCCO4)n3)cc2F)CC1` [Compound 428]: the IC50 at Syk kinase and in the experiment on RBL-2H3 cells was 1 to 100 nM throughout.

Turning to `Cc1cc(-c2cc3nccnc3c(NC[C@H]3CNCCC3(F)F)n2)ccc1N1CCOCC1` [Compound 371, (R)—N-((4,4-difluoropiperidin-3-yl)methyl)-7-(3-methyl-4-morpholinophenyl)pyrido[4,3-b]pyrazin-5-amine], the IC50 at Syk kinase and in the experiment with RBL-2H3 cells was 1 to 100 nM each time.

`CN(CCO)c1ccc(-c2cc3nccnc3c(NCC3CNCCC3(F)F)n2)cc1` (stereo not shown) [Compound 485, 2-((4-(5-((4,4-difluoropiperidin-3-yl)methylamino)pyrido[4,3-b]pyrazin-7-yl)phenyl)(methyl)amino)ethanol]: the IC50 at Syk kinase and in the experiment with RBL-2H3 cells was 1 to 100 nM each time.

As to `Clc1ccc(-c2cc3nccnc3c(NC[C@H]3CCCNC3)n2)cc1` [Compound 85], the IC50 at Syk kinase was 1 to 100 nM; in the experiment on RBL-2H3 cells, 100 to 1000 nM.

`NC(=O)CCNc1nc(-c2ccc(N3CCCC3)cc2)cc2nccnc12` [Compound 177]: the results for the IC50 at Syk kinase and in the experiment on RBL-2H3 cells were 100 to 1000 nM and 1 to 100 nM, respectively.

Consider `CN1CCN(c2ccc(-c3cc4nccnc4c(NCC4(F)CCCNC4)n3)cc2)CC1` (stereo not shown) [Compound 253], for which the IC50 fell in the range of 1 to 100 nM on Syk kinase and 100 to 1000 nM in the experiment on RBL-2H3 cells.

`CN1CCC(c2ccc(-c3cc4nccnc4c(NC[C@@H]4CN(C(=O)C(F)F)CCO4)n3)cc2)CC1` [Compound 463]: the IC50 was 1 to 100 nM on Syk kinase and 100 to 1000 nM with RBL-2H3 cells.

`Cc1cc(-c2cc3nccnc3c(NCC3CNCCCO3)n2)ccc1N1CCOCC1` (stereo not shown) [Compound 221]: the IC50 on Syk kinase and in the experiment with RBL-2H3 cells was 1 to 100 nM in each case.

Consider `Fc1cc(-c2cc3nccnc3c(NCC3CNCCCO3)n2)ccc1N1CCOCC1` (stereo not shown) [Compound 222], for which the half-inhibitory concentration (IC50) on Syk kinase and in the experiment with RBL-2H3 cells was 100 to 1000 nM each time.

As to `c1cnc2c(NC[C@@H]3CNCCO3)nc(-c3cnn(C4CCOCC4)c3)cc2n1` [Compound 261], the IC50 on Syk kinase and with RBL-2H3 cells was 100 to 1000 nM each time.

Regarding `CCC(=O)N1CCN(c2ccc(-c3cc4nccnc4c(NC[C@@H]4CNCCO4)n3)cc2F)CC1` [Compound 429], the IC50 at Syk kinase and with RBL-2H3 cells was 1 to 100 nM each time.

On to `O=C(C(F)F)N1CCO[C@H](CNc2nc(-c3ccc(N4CCOCC4)cc3)cc3nccnc23)C1` [Compound 323], for which the IC50 at Syk kinase and in the experiment with RBL-2H3 cells was 1 to 100 nM each time.

`O=C(C1CC(F)(F)C1)N1CCN(c2ccc(-c3cc4nccnc4c(NC[C@@H]4CNCCO4)n3)cc2)CC1` [Compound 432]: the IC50 on Syk kinase and in the experiment with RBL-2H3 cells was 1 to 100 nM throughout.

With `FC1(CNc2nc(-c3ccc(N4CCOCC4)cc3)cc3nccnc23)CCCNC1` (single isomer, unassigned) [Compound 377], the IC50 at Syk kinase and in the experiment on RBL-2H3 cells was 1 to 100 nM each time.

Regarding `Oc1ccc(-c2cc3nccnc3c(NC[C@H]3CCCNC3)n2)cc1F` [Compound 67], the IC50 at Syk kinase is 1 to 100 nM; in the experiment on RBL-2H3 cells it was 100 to 1000 nM.

Regarding `O=C(CCO)N1CCN(c2ccc(-c3cc4nccnc4c(NC[C@@H]4CNCCO4)n3)cc2)CC1` [Compound 410], the figures for the IC50 on Syk kinase and with RBL-2H3 cells were 1 to 100 nM and 100 to 1000 nM, respectively.

Take `CN(C)c1ccc(-c2cc3nccnc3c(NC[C@@H]3CN(C(=O)C(F)F)CCO3)n2)cc1` [Compound 455]: the IC50 on Syk kinase and in the experiment on RBL-2H3 cells was 1 to 100 nM each time.

Consider `Clc1cccc(-c2cc3nccnc3c(NCC3CCCNC3)n2)c1` (stereo not shown) [Compound 24], for which the IC50 at Syk kinase and in the experiment with RBL-2H3 cells was 100 to 1000 nM throughout.

For `CC(=O)N1CCC(c2ccc(-c3cc4nccnc4c(NC[C@@H]4CN(S(C)(=O)=O)CCO4)n3)cc2)CC1` [Compound 468], the IC50 at Syk kinase was 1 to 100 nM; with RBL-2H3 cells, 100 to 1000 nM.

For the molecule `CN1CCN(c2ccc(-c3cc4nccnc4c(NC[C@H]4CNCCC4(F)F)n3)cc2)CC1` [Compound 373, (R)—N-((4,4-difluoropiperidin-3-yl)methyl)-7-(4-(4-methylpiperazin-1-yl)phenyl)pyrido[4,3-b]pyrazin-5-amine], the half-maximal inhibitory concentration (IC50) on Syk kinase and with RBL-2H3 cells was 100 to 1000 nM in each case.

As to `Cc1cc(-c2cc3nccnc3c(NC[C@@H]3CNCCC3(F)F)n2)ccc1N1CCOCC1` [Compound 370, (S)—N-((4,4-difluoropiperidin-3-yl)methyl)-7-(3-methyl-4-morpholinophenyl) pyrido[4,3-b]pyrazin-5-amine], the IC50 on Syk kinase and with RBL-2H3 cells was 1 to 100 nM in each case.

Turning to `CN(C)c1ccc(-c2cc3nccnc3c(N3CCC4(CCCNC4)C3)n2)cc1` (stereo not shown) [Compound 111], the IC50 at Syk kinase and in the experiment on RBL-2H3 cells was 1 to 100 nM throughout.

Consider `FC1=CC(CNc2nc(-c3ccc(N4CCOCC4)cc3)cc3nccnc23)CNC1` (stereo not shown) [Compound 157], for which the IC50 at Syk kinase and with RBL-2H3 cells was 1 to 100 nM throughout.

In the case of `CN1CCCN(c2ccc(-c3cc4nccnc4c(NC[C@@H]4CNCCO4)n3)cn2)CC1` [Compound 260], the IC50 on Syk kinase and in the experiment with RBL-2H3 cells was 100 to 1000 nM in each case.

Regarding `CCN1CCN(c2ccc(-c3cc4nccnc4c(NC[C@H]4CCCNC4)n3)cc2F)CC1` [Compound 238], the IC50 on Syk kinase was in the range of 1 to 100 nM; in the experiment with RBL-2H3 cells, 100 to 1000 nM.

As for `CS(=O)(=O)NC[C@@H]1CCN(c2nc(-c3ccc(N4CCOCC4)cc3)cc3nccnc23)C1` [Compound 149, (R)—N-((1-(7-(4-morpholinophenyl)pyrido[4,3-b]pyrazin-5-yl)pyrrolidin-3-yl)methyl)methanesulfonamide], the half-inhibitory concentration (IC50) at Syk kinase and in the experiment with RBL-2H3 cells was 100 to 1000 nM throughout.

Regarding `CC(C)C(=O)N1CCN(c2ccc(-c3cc4nccnc4c(NC[C@@H]4CNCCO4)n3)cc2)CC1` [Compound 405], the half-inhibitory concentration (IC50) on Syk kinase and with RBL-2H3 cells was 1 to 100 nM throughout.

`CC(Nc1nc(-c2ccc(N3CCOCC3)cc2)cc2nccnc12)C1CNCCO1` (stereo not shown) [Compound 276]: the IC50 at Syk kinase and with RBL-2H3 cells was 1 to 100 nM each time.

`Cc1ccc(-c2cc3nccnc3c(NC[C@H]3CCCNC3)n2)cc1F` [Compound 41]: the IC50 at Syk kinase is 1 to 100 nM; in the experiment with RBL-2H3 cells, 100 to 1000 nM.
